Test results published in patent US10451610B2, “Prediction of response to PARP inhibitors and combinational therapy targeting C-MET and PARP1” (Board of Regents, The University of Texas System, priority 2014, dated 2019).

Key:
[1] = test system: MDA-MB-231 cells; assay: Cell viability assay; assay type: cell-based, human; details: for sensitivity of cells to PARP inhibitors: MDA-MB-231, c-Met inhibitor with ABT-888 (cell viability) or AG014699 (clonogenic), FIGS. 2D-E, 8D; for sensitivity to PARP inhibitor, clonogenic cell survival and cell viability: c-Met knockdown vs control, cells expressing wild-type PARP1, FIGS. 3H, 13D-E
Method: Cells (1,500) were seeded in a 96-well plate and treated with the indicated inhibitors for 72 h. Then cells were incubated in fresh media with 100 μM resazurin for 1 h. Cell viability was measured by fluorescent plate readers at spectra of 560EX nm/590EM nm. Survival curves were expressed as mean±s.d. relative to DMSO-treated control from three independent experiments.
Cell growth was measured by cell viability, clonogenic cell survival, or soft agar anchorage-independent cell growth assay.

[2] = test system: phosphorylation of PARP1 at Y907; assay: Western blot of H2O2-induced PARP1 pY907 in MDA-MB-231 cells; assay type: cell-based, human; details: pre-treatment before H2O2; FIG. 3G
Method: For immunoprecipitation (IP), lysates of cells treated as described in the text were precleared with 1 μg of mouse or rabbit IgG and 20 μl of protein G-agarose (Roche, Indianapolis, Ind.) for 1 h at 4° C. Pre-cleared lysates were incubated with 1 μg of primary antibodies or anti-IgG antibody at 4° C. overnight with gentle agitation. Lysates were further incubated with protein G-agarose for 30 min at 4° C. Protein G-agarose pellets were collected and washed three times at 4° C. The immunoprecipitants were subjected to sodium dodecyl sulfate-polyacrylamide gel electrophoresis (SDS-PAGE) and western blot analysis as described previously (Du et al., 2014).

[3] = test system: patients with wild-type BRCA; details: cited from earlier work
[4] = test system: γH2AX foci formation in MDA-MB-231 cells; assay: γH2AX foci formation by immunofluorescence confocal microscopy; assay type: cell-based, human; details: c-Met inhibitor together with PARP inhibitor ABT-888; FIG. 3A
Method: Briefly, cells grown on chamber slides (Labtek, Scotts Valley, Calif.) were treated as described in the text. After washing with ice-cold PBS, cells were fixed, permeabilized, and incubated with primary antibodies and fluorescence-labeled secondary antibodies. Immunostained cells were examined using a Zeiss LSM 710 laser-scanning microscope (Carl Zeiss, Thornwood, N.Y.) with a 63×/1.4 objective. The ZEN and AxioVison (Carl Zeiss) and Image J software programs (National Institutes of Health, Bethesda, Md.) were used for data analysis. The mean±s.d. of fluorescence intensity of the indicated antibodies from five images in each treatment group was calculated.

[5] = test system: PARP1 Y907 phosphorylation; assay: PARP1-pY907 staining of MDA-MB-231 xenograft tumor tissues; assay type: in vivo, nude mice; details: tissues harvested within 24 h after last treatment; FIG. 4O
Method: All animal procedures were conducted under the approval of the Institutional Animal Care and Use Committee (IACUC) at MD Anderson Cancer Center (protocol number 10-14-07231). Female nude mice at 6-8 weeks of age were injected in their mammary fat pads with 0.5×10^6 MDA-MB-231 cells, 2×10^6 HCC1937 cells or 5×10^6 MCF-7 cells. Female FBV at 6-8 weeks of age were injected in their mammary fat pads with 0.5×10^6 A1034 cells. H1993 cells were injected subcutaneously into the right flank of female nude mice at 6-8 weeks of age. For MDA-MB-231 and A1034 cells xenograft mouse models, mice were imaged with the IVIS Imaging System 5 days after injection and were divided into treatment groups (n=10). […] After 2 weeks of treatment, tumor sizes were assessed using with the IVIS Imaging System. Mice were injected with 100 μl of D-luciferin (Xenogen; 15 mg/ml in PBS). After 10 min, mice were anesthetized with a mixture of oxygen and isoflurane (Inhalation Anesthesia System; Matrix Medical, Orchard Park, N.Y.) and underwent imaging with the IVIS Imaging System. Imaging parameters were maintained across experiments for comparative analyses. Tumor samples were collected after final treatment and analyzed by immunofluorescence staining. For toxicity assessment, mice were weighed before and after treatment. Blood samples were collected after treatment. […]

[6] = test system: patients with TNBC; details: phase 2, combined with chemotherapy; cited from earlier work
[7] = test system: patients with TNBC; details: phase 3; cited from earlier work

Compound | sensitivity of cells to PARP inhibitors [1] | phosphorylation of PARP1 at Y907 induced by H2O2 [2] | sensitivity to PARP inhibitor, clonogenic cell survival and cell viability [1] | further results
COc1cc2c(Oc3ccc(NC(=O)C4(C(=O)Nc5ccc(F)cc5)CC4)cc3F)ccnc2cc1OCCCN1CCOCC1 [foretinib] | enhanced the sensitivity of cells to PARP inhibitors | abolished phosphorylation of PARP1 at Y907 |  | 
O=C(c1cc(Cc2n[nH]c(=O)c3ccccc23)ccc1F)N1CCN(C(=O)C2CC2)CC1 [olaparib] |  |  |  | clinical response [3]: demonstrated response
C[C@]1(c2nc3c(C(N)=O)cccc3[nH]2)CCCN1 [ABT-888, Veliparib] |  |  | more sensitive | 
C[C@@H](Oc1cc(-c2cnn(C3CCNCC3)c2)cnc1N)c1c(Cl)ccc(F)c1Cl [crizotinib] | enhanced the sensitivity of cells to PARP inhibitors | abolished phosphorylation of PARP1 at Y907 |  | γH2AX foci formation (marker of DNA damage) [4]: enhanced γH2AX foci formation; PARP1 Y907 phosphorylation in tumor tissue [5]: inhibited
CNCc1ccc(-c2[nH]c3cc(F)cc4c3c2CCNC4=O)cc1 [AG014699, Rucaparib] |  |  | more sensitive | 
NC(=O)c1ccc(I)c([N+](=O)[O-])c1 [iniparib] |  |  |  | clinical benefit [6]: improved clinical benefits; overall survival or progression free survival benefit [7]: did not provide significant overall survival or progression free survival benefit
